This experiment relates to KHOS-240S. In words: relative viability vs DMSO control (72 h) (fraction); higher = more viable cells. A digest of the protocol:
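Percent growth from ATPLite readings, averaged over up to triplicate wells, was used as relative viability. Sarcoma cell lines were seeded into 384-well plates for 80–90% confluence, dosed after 24 h, and kept 72 h at 37 °C, 5% CO2. Data were rescaled to a range where 1 is full and 0 is none.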

± gives the standard deviation of the averaged measurements.

`Cc1cc(Nc2ncnc3ccc(NC4=NC(C)(C)CO4)cc23)ccc1Oc1ccn2ncnc2c1` [Tucatinib]: the relative viability by setting is: (0.00017 µM) 1.06 ± 0.019; (0.00051 µM) 1.11 ± 0.022; (0.00152 µM) 1.09 ± 0.036; (0.00457 µM) 1.07 ± 0.031; (0.01372 µM) 1.075 ± 0.0081; (0.04115 µM) 1.09 ± 0.03. For the same compound, the relative viability is, setting by setting: (0.1235 µM) 1.08 ± 0.025; (0.3704 µM) 1.07 ± 0.027; (1.111 µM) 1.05 ± 0.054; (3.333 µM) 1.01 ± 0.022; (10 µM) 0.953 ± 0.051.

In the case of `N#CC[C@H](C1CCCC1)n1cc(-c2ncnc3[nH]ccc23)cn1` [Ruxolitinib], the relative viability turned out to be 0.984 ± 0.0066 (0.00017 µM); 0.984 ± 0.012 (0.00051 µM); 0.97 ± 0.043 (0.00152 µM); 0.975 ± 0.025 (0.00457 µM); 0.95 ± 0.035 (0.01372 µM); 0.966 ± 0.028 (0.04115 µM). For the same compound, the relative viability reads like this: (0.1235 µM) 0.943 ± 0.037; (0.3704 µM) 0.912 ± 0.037; (1.111 µM) 0.88 ± 0.024; (3.333 µM) 0.773 ± 0.037; (10 µM) 0.583 ± 0.015.

Turning to `Cc1ccc(F)c(NC(=O)Nc2ccc(-c3cccc4[nH]nc(N)c34)cc2)c1` [Linifanib], the relative viability by setting is: (0.00017 µM) 1.06 ± 0.02; (0.00051 µM) 1.08 ± 0.08; (0.00152 µM) 1.059 ± 0.0094; (0.00457 µM) 1.07 ± 0.031; (0.01372 µM) 1.05 ± 0.029; (0.04115 µM) 1.08 ± 0.041. Also, the relative viability (0.1235 µM) is 1.03 ± 0.049; the relative viability (0.3704 µM) came to 1.04 ± 0.054; the relative viability (1.111 µM) is 1.06 ± 0.043; the relative viability (3.333 µM) was determined as 1.04 ± 0.011; the relative viability (10 µM) came to 0.999 ± 0.054.

With `Cc1nc(NC(=O)N2CCC[C@H]2C(N)=O)sc1-c1ccnc(C(C)(C)C(F)(F)F)c1` [Alpelisib], the relative viability reads like this: (0.00017 µM) 1.05 ± 0.071; (0.00051 µM) 1.07 ± 0.02; (0.00152 µM) 1.03 ± 0.054; (0.00457 µM) 1.05 ± 0.054; (0.01372 µM) 1.02 ± 0.061; (0.04115 µM) 1.01 ± 0.048. The relative viability is, setting by setting: (0.1235 µM) 0.914 ± 0.055; (0.3704 µM) 0.907 ± 0.039; (1.111 µM) 0.825 ± 0.065; (3.333 µM) 0.791 ± 0.04; (10 µM) 0.697 ± 0.054.

Consider `CC(C)(C)c1cc(NC(=O)Nc2ccc(-c3cn4c(n3)sc3cc(OCCN5CCOCC5)ccc34)cc2)no1` [Quizartinib], for which the relative viability runs as follows: (0.00017 µM) 1.06 ± 0.037; (0.00051 µM) 1.05 ± 0.011; (0.00152 µM) 1.05 ± 0.025; (0.00457 µM) 1.05 ± 0.02; (0.01372 µM) 1.06 ± 0.026; (0.04115 µM) 1.049 ± 0.0031. The relative viability reads like this: (0.1235 µM) 1.03 ± 0.029; (0.3704 µM) 1.01 ± 0.027; (1.111 µM) 0.994 ± 0.036; (3.333 µM) 0.796 ± 0.05; (10 µM) 0.7219 ± 0.0064.

On to `CNC(=O)c1ccc(-c2cnc3ncc(Cc4ccc5ncccc5c4)n3n2)cc1F` [Capmatinib], for which the relative viability by setting is: (0.00017 µM) 1.07 ± 0.048; (0.00051 µM) 1.05 ± 0.02; (0.00152 µM) 1.046 ± 0.0098; (0.00457 µM) 1.07 ± 0.033; (0.01372 µM) 1.07 ± 0.018; (0.04115 µM) 1.06 ± 0.018. The compound further came in with a relative viability (0.1235 µM) of 1.06 ± 0.027; a relative viability (0.3704 µM) of 1.04 ± 0.018; a relative viability (1.111 µM) of 1.03 ± 0.018; a relative viability (3.333 µM) of 1.03 ± 0.012; a relative viability (10 µM) of 0.986 ± 0.03.

Take `CC(C)N1CCN(Cc2cnc(-c3cc(-c4cccc5[nH]ccc45)cc4[nH]ncc34)o2)CC1` [Nemiralisib]: the relative viability runs as follows: (0.00017 µM) 0.971 ± 0.016; (0.00051 µM) 0.972 ± 0.027; (0.00152 µM) 0.98 ± 0.026; (0.00457 µM) 0.971 ± 0.024; (0.01372 µM) 0.966 ± 0.017; (0.04115 µM) 0.939 ± 0.018. The relative viability turned out to be 0.956 ± 0.027 (0.1235 µM); 0.927 ± 0.035 (0.3704 µM); 0.93 ± 0.041 (1.111 µM); 0.759 ± 0.018 (3.333 µM); 0.455 ± 0.026 (10 µM).

Take `C[C@@H](c1ccc2nccn2c1)n1nnc2ncc(-c3cnn(C)c3)nc21` [Volitinib]: the relative viability reads like this: (0.00017 µM) 1.041 ± 0.0092; (0.00051 µM) 1.044 ± 0.0082; (0.00152 µM) 1.07 ± 0.036; (0.00457 µM) 1.07 ± 0.024; (0.01372 µM) 1.077 ± 0.006; (0.04115 µM) 1.101 ± 0.007. The relative viability reads like this: (0.1235 µM) 1.09 ± 0.013; (0.3704 µM) 1.078 ± 0.0062; (1.111 µM) 1.083 ± 0.0058; (3.333 µM) 1.049 ± 0.0046; (10 µM) 1.05 ± 0.021.

Regarding `COc1c(OCCCN2CCOCC2)ccc2c1N=C(NC(=O)c1cnc(N)nc1)N1CCN=C21` [Copanlisib], the relative viability amounted to 1.09 ± 0.041 (0.00017 µM); 1.02 ± 0.048 (0.00051 µM); 1.06 ± 0.013 (0.00152 µM); 0.922 ± 0.094 (0.00457 µM); 0.889 ± 0.098 (0.01372 µM); 0.833 ± 0.09 (0.04115 µM). For the same compound, the relative viability by setting is: (0.1235 µM) 0.714 ± 0.014; (0.3704 µM) 0.629 ± 0.022; (1.111 µM) 0.409 ± 0.018; (3.333 µM) 0.217 ± 0.008; (10 µM) 0.188 ± 0.003.

`CCN1CCN(Cc2ccc(Nc3ncc(F)c(-c4cc(F)c5nc(C)n(C(C)C)c5c4)n3)nc2)CC1` [Abemaciclib] displayed a relative viability (0.00017 µM) of 1.04 ± 0.038; a relative viability (0.00051 µM) of 1.07 ± 0.061; a relative viability (0.00152 µM) of 1.07 ± 0.059; a relative viability (0.00457 µM) of 1.05 ± 0.039; a relative viability (0.01372 µM) of 1.04 ± 0.048; a relative viability (0.04115 µM) of 1 ± 0.077. The relative viability reads like this: (0.1235 µM) 0.892 ± 0.071; (0.3704 µM) 0.834 ± 0.028; (1.111 µM) 0.736 ± 0.024; (3.333 µM) 0.7 ± 0.014; (10 µM) 0.539 ± 0.025.

`C[C@]1(O)C[C@@H](c2nc(-c3ccc4ccc(-c5ccccc5)nc4c3)c3c(N)nccn32)C1` [Linsitinib] displayed a relative viability (0.00017 µM) of 1.08 ± 0.029; a relative viability (0.00051 µM) of 1.1 ± 0.054; a relative viability (0.00152 µM) of 1.08 ± 0.026; a relative viability (0.00457 µM) of 1.07 ± 0.045; a relative viability (0.01372 µM) of 1.07 ± 0.025; a relative viability (0.04115 µM) of 1.07 ± 0.048. Moreover, the relative viability reads like this: (0.1235 µM) 0.992 ± 0.018; (0.3704 µM) 0.917 ± 0.018; (1.111 µM) 0.911 ± 0.026; (3.333 µM) 0.845 ± 0.036; (10 µM) 0.56 ± 0.0069.

With `Cc1ccc(NC(=O)c2ccc(CN3CCN(C)CC3)cc2)cc1Nc1nc(-c2cccnc2)cs1` [Masitinib], the relative viability runs as follows: (0.00017 µM) 1.02 ± 0.03; (0.00051 µM) 1.03 ± 0.021; (0.00152 µM) 1.04 ± 0.017; (0.00457 µM) 1.03 ± 0.011; (0.01372 µM) 1.01 ± 0.051; (0.04115 µM) 1.01 ± 0.047. In addition, the relative viability is 0.98133 ± 0.00047 (0.1235 µM); 0.862 ± 0.033 (0.3704 µM); 0.758 ± 0.012 (1.111 µM); 0.474 ± 0.028 (3.333 µM); 0.109 ± 0.005 (10 µM).

Take `CN1CCN(c2ccc3nc(-c4c(N)c5c(F)cccc5[nH]c4=O)[nH]c3c2)CC1` [Dovitinib]: the relative viability is, setting by setting: (0.00017 µM) 1.07 ± 0.031; (0.00051 µM) 1.04 ± 0.051; (0.00152 µM) 1.06 ± 0.046; (0.00457 µM) 1.02 ± 0.023; (0.01372 µM) 1.05 ± 0.033; (0.04115 µM) 1.08 ± 0.019. The compound also yielded a relative viability (0.1235 µM) of 0.979 ± 0.022; a relative viability (0.3704 µM) of 0.891 ± 0.059; a relative viability (1.111 µM) of 0.548 ± 0.014; a relative viability (3.333 µM) of 0.289 ± 0.027; a relative viability (10 µM) of 0.0854 ± 0.0022.
